According to US6984639B2, “Heterocyclic ketone and thioester compounds and uses” (GPI NIL Holdings, Inc., priority 1996, dated 2006):
Like-named read-outs stand apart in the source and are kept apart here.

Tests used:
[1] = system: MPTP lesioning of dopaminergic neurons in mice; assay: MPTP Model of Parkinson's Disease; assay type: in vivo; settings: test compound 4 mg/kg s.c.; MPTP 30 mg/kg i.p. for 5 days; CD1 mice; striatum, 18 days following MPTP
Method: MPTP lesioning of dopaminergic neurons in mice was used as an animal model of Parkinson's Disease. Four week old male CD1 white mice were dosed i.p. with 30 mg/kg of MPTP for 5 days. Test compounds (4 mg/kg), or vehicle, were administered s.c. along with the MPTP for 5 days, as well as for an additional 5 days following cessation of MPTP treatment. At 18 days following MPTP treatment, the animals were sacrificed and the striata were dissected and homogenized. Immunostaining was performed on saggital and coronal brain sections using anti-tyrosine hydroxylase […] to quantitate survival and recovery of dopaminergic neurons.
The results of these experiments are presented in TABLE IV under the column “% TH recovery”.

[2] = system: cultured chick sensory neurons from dorsal root ganglia; assay: Chick Dorsal Root Ganglion Cultures and Neurite Outgrowth; assay type: cell-based; settings: for EC50: neurite outgrowth, 48 hours after drug treatment, from dose-response curves, read-out: ED50 (the source's name)
Method: Dorsal root ganglia were dissected from chick embryos of ten day gestation. Whole ganglion explants were cultured on thin layer Matrigel-coated 12 well plates with Liebovitz L15 plus high glucose media supplemented with 2 mM glutamine and 10% fetal calf serum, and also containing 10 μm cytosine β-D arabinofuranoside (Ara C) at 37° C. in an environment containing 5% CO2. Twenty-four hours later, the DRGs were treated with various concentrations of nerve growth factor, immunophilin ligands or combinations of NFG plus drugs. Forty-eight hours after drug treatment, the ganglia were visualized under phase contrast or Hoffman Modulation contrast with a Zeiss Axiovert inverted microscope. Photomicrographs of the explants were made, and neurite outgrowth was quantitated. Neurites longer than the ORG diameter were counted as positive, with total number of neurites quantitated per each experimental condition. Three to four DRGs are cultured per well, and each treatment was performed in duplicate.
Dose-response curves were generated from which ED50 values were obtained.

| Compound | % TH recovery [1] | EC50 [2] | also measured |
| --- | --- | --- | --- |
| CCC(C)(C)C(=O)C(=O)N1CCC[C@H]1C(=O)CCCC(c1ccc(F)cc1)c1ccc(F)cc1 [Compound 66, (2S)-2-[5,5-di(4-Fluorophenyl)pentanoyl]-1-(3,3 dimethyl-1,2-pentanedione)pyrrolidine] | 25% |  |  |
| 2-Phenyl-1-ethyl (2S)-1-(3,3-dimethyl-1,2-dioxopentyl)-2-pyrrolidinecarbothioate [Compound 9] | 61% | 0.5 nM |  |
| 3-(para-Methoxyphenyl)-1-propyl (2S)-1-(3,3-dimethyl-1,2-dioxopentyl)-2-pyrrolidinecarbothioate [Compound 34] | 37.32% | 0.011 nM |  |
| 2-Phenyl-1-ethyl (2S)-1-(2-cyclohexyl-1,2-dioxoethyl)-2-pyrrolidinecarbothioate [Compound 12] |  | 0.025 nM |  |
| 3-(1-Naphthyl)-1-propyl 1-(3,3-dimethyl-1,2-dioxopentyl)piperidine-2-carbothioate [Compound 40] | 25% |  |  |
| CCC(C)(C)C(=O)C(=O)N1CCCC1C(=O)SCc1csc2ccccc12 (stereo not shown) [Compound 11] | 53% | 0.36 nM |  |
| O=C(C(=O)N1CCC[C@H]1C(=O)CCCCc1ccccc1)C1CCCCC1 [Compound 62, (2S)-2-(1-Oxo-5-phenyl)pentyl-1-(2-Cyclohexyl-1,2-dioxoethyl)pyrrolidine] | 38% |  | EC50 ([2]; Gallus gallus, Neuron): 5 nM |
| 3-Phenyl-1-propyl (2S)-1-(2-cyclohexyl-1,2-dioxoethyl)-2-pyrrolidinecarbothioate [Compound 28] | 52% |  |  |
| 4-Phenyl-1-butyl (2S)-1-(3,3-dimethyl-1,2-dioxopentyl)-2-pyrrolidinecarbothioate [Compound 30] | 48% | 0.9 nM |  |
| 3,3-Diphenyl-1-propyl (2S)-1-(3,3-dimethyl-1,2-dioxopentyl)-2-pyrrolidinecarbothioate [Compound 32] | 56% |  |  |
| CCC(C)(C)C(=O)C(=O)N1CCC[C@H]1C(=O)CCCCc1ccccc1 [Compound 1, (2S)-3,3-dimethyl-1-[2-(5-phenylpentanoyl)pyrrolidinyl]pentane-1,2-dione] | 23% | 0.4 nM | neurite outgrowth in sensory neurons (photomicrograph) ([2]; 10 pM): promoting neurite outgrowth; neurite outgrowth in sensory neurons (photomicrograph) ([2]; 1 nM): promoting neurite outgrowth; neurite outgrowth in sensory neurons (photomicrograph) ([2]; 1 μM): promoting neurite outgrowth |
| 2-Phenyl-1-ethyl 1-(3,3-dimethyl-1,2-dioxopentyl)-2-piperidinecarbothioate [Compound 10] | 54% | 0.8 nM | neurite outgrowth in sensory neurons (photomicrograph) ([2]; 10 pM): promoting neurite outgrowth; neurite outgrowth in sensory neurons (photomicrograph) ([2]; 1 nM): promoting neurite outgrowth; neurite outgrowth in sensory neurons (photomicrograph) ([2]; 100 nM): promoting neurite outgrowth |
| CC(C)(C)C(=O)C(=O)N1CCCCC1C(=O)C(CCc1ccccc1)CCc1ccccc1 (stereo not shown) [Compound 65] | 23% |  |  |
| 3,3-Diphenylpropyl 1-(3,3-dimethyl-2-oxopentanoyl)-2-piperidinecarbothioate [Compound 46] | 62% |  |  |
| 3-(1-Naphthyl)-1-propyl (2S)-1-(3,3-dimethyl-2-oxopentanoyl)-2-pyrrolidinecarbothioate [Compound 43] | 50% |  |  |
| 2-Phenyl-1-ethyl 1-(2-phenyl-1,2-dioxoethyl)-2-piperidinecarbothioate [Compound 14] | 48% | 0.9 nM |  |
| 2,2-Diphenylethyl (2S)-1-(3,3-dimethyl-2-oxopentanoyl)-2-pyrrolidinecarbothioate [Compound 44] | 28% |  |  |
